According to patent US20200054058A1, “Sweetness and Taste Improvement of Steviol Glycoside and Mogroside Sweeteners with Dihydrochalcones” (The Coca-Cola Company, priority 2017, published 2020):
Read-outs that look alike come from different tables or passages of the source.

How the values were obtained:
[1] = tested on: panelist; settings: Isomer of Siamenoside I in acidic water (100 ppm, Table 4); one panelist
Text: The panelist was asked to evaluate the sweetness of the samples against the 3%, 5%, and 8% sucrose solutions and describe the taste profiles.

[2] = tested on: panelists; settings: 250 ppm 1,6-α-isomer of Siamenoside I in acidic water; one panelist; slightly less
[3] = tested on: panelists; experiment: Sensory tasting of mock beverages with Reb-J, Reb-N, Reb-O, Reb-M with and without CC-00800 against sucrose references (Example 6); format: in vivo, human; settings: for enhancement of overall sweetness by hesperitin dihydrochalcone: 10 ppm hesperitin dihydrochalcone added to the steviol glycoside beverage, all panelists; for sweetness and bitterness rank among Reb-J, Reb-N, Reb-O, Reb-M: mock beverages without hesperitin dihydrochalcone
Method: Steviol glycosides, namely Reb-J, Reb-N, Reb-M, Reb-O with 95% purity were purchased from commercial sources.
A 6% stock solution of CC-00800 (hesperitin dihydrochalcone, “HDC”) was made in propylene glycol (PG) food grade and used in subsequent experiments.
Acidified mock beverages (100 grams) were made using the following ingredients (in grams) in order:
All ingredients were dissolved in carbon-filtered water and the resulting beverage was filled in 300 ml glass bottles and immediately refrigerated (4° C.). Beverages were bench tasted when cold.
Four experienced panelists bench tasted the beverages blindly. Each panelist was given warm bottled water and unsalted crackers to eat and rinse the palate between samples. A maximum of 3 samples was tasted at each session to avoid fatigue.
The first session consisted of tasting beverages without hesperitin dihydrochalcone.
The second session consisted of tasting the beverages with hesperitin dihydrochalcone added (10 ppm). All panelists agreed that hesperitin dihydrochalcone enhanced the overall sweetness for about 1 Brix for Reb-J, Reb-O, and Reb-N, while Reb-M was enhanced with about 2.5 Brix.

[4] = tested on: panelists; experiment: Taste evaluation of NHDC with rebaudioside M in acidic water against sucrose solutions (Example 2); format: in vivo, human; settings: both panelists
Text: First, the panelists assessed the sweetness of 5 ppm of NHDC in acidic water against 1.5% sucrose solution in acidic water.
Next, panelists compared the sweetness profile of (i) a sample containing 150 ppm rebaudioside M and (ii) a sample containing 5 ppm NHDC and 150 rebaudioside M to the 6%, 8%, and 10% sucrose solutions.

[5] = tested on: panelist; experiment: Taste evaluation of phloretin with rebaudioside M in acidic water against sucrose solutions (Example 1); format: in vivo, human; settings: one panelist
Text: First, the panelist assessed the sweetness of 40 ppm of phloretin in acidic water against a 1.5% sucrose solution in acidic water. 40 ppm of phloretin was reported to have a sweetness less than the sweetness of the 1.5% sucrose solution.
Next, the panelist compared the sweetness profile of (i) the sample containing 150 ppm rebaudioside M in acidic water and (ii) the sample containing 40 ppm phloretin and 150 ppm rebaudioside M in acidic water to the 5%, 7%, 8%, 9%, and 10% sucrose solutions.

[6] = tested on: panelists; experiment: Taste evaluation of hesperetin dihydrochalcone with rebaudioside M in acidic water against sucrose solutions (Example 3); format: in vivo, human; settings: 150 ppm rebaudioside M in acidic water; both panelists; slightly less sweet
Text: Panelists compared the sweetness profile of (i) a sample containing 150 ppm rebaudioside M and (ii) a sample containing 40 ppm hesperetin dihydrochalcone and 150 ppm rebaudioside M to the 4%, 6%, 8%, and 10% sucrose solutions.

[7] = tested on: panelists; experiment: Bench tasting of acidified mock beverages, CC-00800 + Reb-M (Example 5); format: in vivo, human; settings: 472 ppm Reb-M, control mock beverage (Bev. #7); five panelists
Method: Rebaudioside M was acquired from Pure Circle (86% Reb-M, 9% Reb-D, 0.8% Reb-A, plus other steviol glycosides in minor amount).
A 6% stock solution of Hesperetin Dihydrochalcone (CC-00800) was made in propylene glycol (PG) food grade and used in subsequent experiments.
Acidified mock beverages (300 grams) were made using the following ingredients (in grams) in order:
All ingredients were dissolved in carbon-filtered water and the resulting beverage was filled in 300 ml glass bottles and immediately refrigerated (4° C.). Beverages were bench tasted next morning.
Five experienced panelists bench tasted the beverages blindly. Each panelist was given warm bottled water and unsalted crackers to eat and rinse the palate between samples. A maximum of 3 samples was tasted at each session to avoid fatigue.

[8] = tested on: panelists; format: in vivo, human; settings: 250 ppm Rebaudioside M in acidic water; for sweetness in sucrose equivalents: slightly less sweet
[9] = tested on: panelists; experiment: Taste evaluation of hesperetin dihydrochalcone with siamenoside I in acidic water against sucrose solutions (Example 4); format: in vivo, human; settings: 150 ppm siamenoside I in acidic water; both panelists; slightly less sweet
Text: Panelists compared the sweetness profile of (i) a sample containing 150 ppm siamenoside I and (ii) a sample containing 40 ppm hesperetin dihydrochalcone and 150 ppm siamenoside I to the 4%, 6%, 8%, and 10% sucrose solutions.

[10] = tested on: panelists; settings: 250 ppm Siamenoside I in acidic water; one panelist
[11] = 10 ppm hesperitin dihydrochalcone added
[12] = 150 ppm rebaudioside M in acidic water

## C[C@H](CC[C@@H](O[C@@H]1O[C@H](CO[C@H]2O[C@H](CO)[C@@H](O)[C@H](O)[C@H]2O)[C@@H](O)[C@H](O)[C@H]1O[C@@H]1O[C@H](CO)[C@@H](O)[C@H](O)[C@H]1O)C(C)(C)O)[C@H]1CC[C@@]2(C)[C@@H]3CC=C4[C@@H](CC[C@H](O[C@@H]5O[C@H](CO)[C@@H](O)[C@H](O)[C@H]5O)C4(C)C)[C@]3(C)[C@H](O)C[C@]12C [1,6-α-isomer of Siamenoside I, mogro-3-O-[β-D-glucopyranoside]-24-O-{[β-D-glucopyranosyl-(1→2)]-[α-D-glucopyranosyl-(1→6)]-β-O-D-glucopyranoside}]
[1]
  sweetness against sucrose solutions: ~4 % sucrose
[2]
  sweetness in sucrose equivalents: less than 7 % sucrose

## COc1ccc(CCC(=O)c2c(O)cc(O)cc2O)cc1O [Hesperitin dihydrochalcone, 3-(3-Hydroxy-4-methoxyphenyl)-1-(2,4,6-trihydroxyphenyl)-1-propanone]
[3]; [11]
  effect on bitterness and other off-notes of steviol glycoside beverages: reduced significantly
  effect on mouth feel of steviol glycoside beverages: improved

## COc1ccc(CCC(=O)c2c(O)cc(O[C@@H]3O[C@H](CO)[C@@H](O)[C@H](O)[C@H]3O[C@@H]3O[C@@H](C)[C@H](O)[C@@H](O)[C@H]3O)cc2O)cc1O [NHDC, 1-[4-[[(2S,3R,4S,5S,6R)-4,5-Dihydroxy-6-(hydroxymethyl)-3-[[(2S,3R,4R,5R,6S)-3,4,5-trihydroxy-6-methyl-2-tetrahydropyranyl]oxy]-2-tetrahydropyranyl]oxy]-2,6-dihydroxyphenyl]-3-(3-hydroxy-4-methoxyphenyl)propan-1-one]
[4]; 5 ppm NHDC in acidic water
  sweetness against sucrose solution: < 1.5 % sucrose

## C=C1C[C@@]23CC[C@H]4[C@@](C)(CCC[C@@]4(C)C(=O)O[C@@H]4O[C@H](CO)[C@@H](O)[C@H](O)[C@H]4O[C@@H]4O[C@@H](C)[C@H](O)[C@@H](O)[C@H]4O)[C@@H]2CC[C@]1(O[C@@H]1O[C@H](CO)[C@@H](O)[C@H](O[C@@H]2O[C@H](CO)[C@@H](O)[C@H](O)[C@H]2O)[C@H]1O[C@@H]1O[C@H](CO)[C@@H](O)[C@H](O)[C@H]1O)C3 [Reb-J, rebaudioside J]
[3]
  enhancement of overall sweetness by hesperitin dihydrochalcone: about 1 Brix
  sweetness and bitterness rank among Reb-J, Reb-N, Reb-O, Reb-M: least sweet and most bitter

## C=C1C[C@@]23CC[C@H]4[C@@](C)(CCC[C@@]4(C)C(=O)O[C@@H]4O[C@H](CO)[C@@H](O)[C@H](O[C@@H]5O[C@H](CO)[C@@H](O)[C@H](O)[C@H]5O)[C@H]4O[C@@H]4O[C@@H](C)[C@H](O)[C@@H](O)[C@H]4O)[C@@H]2CC[C@]1(O[C@@H]1O[C@H](CO)[C@@H](O)[C@H](O[C@@H]2O[C@H](CO)[C@@H](O)[C@H](O)[C@H]2O)[C@H]1O[C@@H]1O[C@H](CO)[C@@H](O)[C@H](O)[C@H]1O)C3 [Reb-N, rebaudioside N]
[3]
  enhancement of overall sweetness by hesperitin dihydrochalcone: about 1 Brix

## C=C1C[C@@]23CC[C@H]4[C@@](C)(CCC[C@@]4(C)C(=O)O[C@@H]4O[C@H](CO)[C@@H](O)[C@H](O[C@@H]5O[C@H](CO)[C@@H](O)[C@H](O)[C@H]5O)[C@H]4O[C@@H]4O[C@@H](C)[C@H](O)[C@@H](O[C@@H]5O[C@H](CO)[C@@H](O)[C@H](O)[C@H]5O)[C@H]4O)[C@@H]2CC[C@]1(O[C@@H]1O[C@H](CO)[C@@H](O)[C@H](O[C@@H]2O[C@H](CO)[C@@H](O)[C@H](O)[C@H]2O)[C@H]1O[C@@H]1O[C@H](CO)[C@@H](O)[C@H](O)[C@H]1O)C3 [Reb-O, rebaudioside O]
[3]
  enhancement of overall sweetness by hesperitin dihydrochalcone: about 1 Brix

## O=C(CCc1ccc(O)cc1)c1c(O)cc(O)cc1O [phloretin, 3-(4-hydroxyphenyl)-1-(2,4,6-trihydroxyphenyl)propan-1-one]
[5]; 40 ppm phloretin in acidic water
  sweetness against sucrose solution: < 1.5 % sucrose

## C=C1C[C@@]23CC[C@H]4[C@@](C)(CCC[C@@]4(C)C(=O)O[C@@H]4O[C@H](CO)[C@@H](O)[C@H](O[C@@H]5O[C@H](CO)[C@@H](O)[C@H](O)[C@H]5O)[C@H]4O[C@@H]4O[C@H](CO)[C@@H](O)[C@H](O)[C@H]4O)[C@@H]2CC[C@]1(O[C@@H]1O[C@H](CO)[C@@H](O)[C@H](O[C@@H]2O[C@H](CO)[C@@H](O)[C@H](O)[C@H]2O)[C@H]1O[C@@H]1O[C@H](CO)[C@@H](O)[C@H](O)[C@H]1O)C3 [rebaudioside M]
[5]; [12]
  sweetness against sucrose solutions: 6 % sucrose
[4]; [12]
  sweetness against sucrose solutions: 6 % sucrose
[6]
  sweetness against sucrose solutions: < 6 % sucrose
[7]
  aftertaste of control: sweet lingering, licorice and bitter aftertaste observed in the control
[3]
  enhancement of overall sweetness by hesperitin dihydrochalcone: about 2.5 Brix
  sweetness and bitterness rank among Reb-J, Reb-N, Reb-O, Reb-M: sweetest
[8]; both panelists
  sweetness and mouthfeel compared with sample also containing Hesperetin dihydrochalcone-4′-beta-D-glucoside: less sweet and less mouthfeel
[8]; one panelist
  sweetness in sucrose equivalents: < 7 % sucrose
[8]; the other panelist
  sweetness in sucrose equivalents: < 8 % sucrose

## C[C@H](CC[C@@H](O[C@@H]1O[C@H](CO[C@@H]2O[C@H](CO)[C@@H](O)[C@H](O)[C@H]2O)[C@@H](O)[C@H](O)[C@H]1O[C@@H]1O[C@H](CO)[C@@H](O)[C@H](O)[C@H]1O)C(C)(C)O)[C@H]1CC[C@@]2(C)[C@@H]3CC=C4[C@@H](CC[C@H](O[C@@H]5O[C@H](CO)[C@@H](O)[C@H](O)[C@H]5O)C4(C)C)[C@]3(C)[C@H](O)C[C@]12C [siamenoside I]
[9]
  sweetness against sucrose solutions: < 6 % sucrose
[10]
  sweetness in sucrose equivalents: ~6 % sucrose
